Experimental data as given in PubChem BioAssay AID493133 (Sanford-Burnham Center for Chemical Genomics, 2011).
Active and inactive are the calls of the source. How the calls were made is not given here.

molecular target: Alkaline phosphatase, tissue-nonspecific isozyme (Homo sapiens) (UniProt P05186); experiment: human TNAP activity change by analogs – biochemical, selectivity assay for mouse IAP activator project, SAR follow-up (AID 493133); conditions: purified human TNAP enzyme, phosphatase activity counter-screen
Sequence (P05186 whole entry, looked up): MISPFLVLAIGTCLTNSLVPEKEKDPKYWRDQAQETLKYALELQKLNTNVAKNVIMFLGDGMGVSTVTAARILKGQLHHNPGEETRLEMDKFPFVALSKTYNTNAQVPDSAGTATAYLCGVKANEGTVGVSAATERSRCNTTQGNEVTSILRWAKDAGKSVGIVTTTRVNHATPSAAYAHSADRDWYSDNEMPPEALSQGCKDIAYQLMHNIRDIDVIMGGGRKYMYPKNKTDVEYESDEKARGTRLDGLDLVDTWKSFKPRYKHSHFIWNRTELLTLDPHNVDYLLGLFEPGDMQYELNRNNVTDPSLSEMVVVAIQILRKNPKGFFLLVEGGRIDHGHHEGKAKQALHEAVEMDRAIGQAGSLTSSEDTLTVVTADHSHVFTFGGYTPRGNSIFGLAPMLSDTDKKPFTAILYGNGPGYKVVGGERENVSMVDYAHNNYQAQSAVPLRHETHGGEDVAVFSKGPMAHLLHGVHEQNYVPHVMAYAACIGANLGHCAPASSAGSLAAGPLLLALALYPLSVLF

SMILES	EC50
COc1ccc(Cl)cc1NC(=O)CSc1sc2c(O)cc(=O)[nH]c2c1C#N	> 100 µM (inactive)
COc1cc([N+](=O)[O-])ccc1NC(=S)NCCC(c1ccccc1)c1ccccc1	> 100 µM (inactive)
O=C(CN1C(=O)/C(=C\c2ccco2)SC1=S)Nc1cccc(C(=O)O)c1	> 100 µM (inactive)
CCOC(=O)N1CCC(NC(=O)CSc2sc3c(O)cc(=O)[nH]c3c2C#N)CC1	> 100 µM (inactive)
Cc1ccc(NC(=O)CCNS(=O)(=O)c2ccc3[nH]c(=O)oc3c2)cc1	> 100 µM (inactive)
CC(C(=O)Nc1ccccc1C(=O)O)N1C(=O)/C(=C\c2ccco2)SC1=S (stereo not given)	> 100 µM (inactive)
O=C(CCCN1C(=O)/C(=C\c2ccco2)SC1=S)Nc1ccc(O)cc1C(=O)O	> 100 µM (inactive)
CCN(C(=O)C(C)N1C(=O)/C(=C/c2ccco2)SC1=S)C1CCS(=O)(=O)C1 (stereo not given)	> 100 µM (inactive)
O=C(CN1C(=O)/C(=C/c2ccco2)SC1=S)Nc1cccc(C(=O)O)c1	> 100 µM (inactive)
Cc1csc(NC(=O)CSc2sc3c(O)cc(=O)[nH]c3c2C#N)n1	> 100 µM (inactive)
O=C(N/N=C/c1ccsc1)c1cc(O)c(O)c(O)c1	> 100 µM (inactive)
O=C(CCN1C(=O)/C(=C/c2ccco2)SC1=S)Nc1ccc(C(=O)O)c(O)c1	> 100 µM (inactive)
COc1ccc(OC)c(NC(=O)CCNS(=O)(=O)c2ccc3[nH]c(=O)oc3c2)c1	> 100 µM (inactive)
O=C(CN1C(=O)/C(=C\c2ccco2)SC1=S)Nc1ccccc1C(=O)O	> 100 µM (inactive)
COc1ccc(NC(=O)CSc2sc3c(O)cc(=O)[nH]c3c2C#N)c(OC)c1	> 100 µM (inactive)
N#Cc1c(SCC(=O)Nc2nncs2)sc2c(O)cc(=O)[nH]c12	> 100 µM (inactive)
N#Cc1c(SCC(=O)Nc2ccc(C(F)(F)F)cc2)sc2c(O)cc(=O)[nH]c12	> 100 µM (inactive)

SMILES	EC50
O=C(c1ccco1)N1CCN(S(=O)(=O)c2ccc3[nH]c(=O)oc3c2)CC1	> 100 µM (inactive)
COc1cc(C(=O)NNC(=O)c2n[nH]c3ccccc23)cc(OC)c1OC	75 µM
O=C(CN1C(=O)/C(=C\c2ccco2)SC1=S)Nc1ccc(C(=O)O)cc1	> 100 µM (inactive)
O=C(N/N=C/c1ccc(F)cc1)c1cc(O)c(O)c(O)c1	> 100 µM (inactive)
CC(C(=O)N(C)C1CCS(=O)(=O)C1)N1C(=O)/C(=C/c2ccco2)SC1=S (stereo not given)	> 100 µM (inactive)
Cc1cc(NC(=O)CSc2sc3c(O)cc(=O)[nH]c3c2C#N)ccc1Br	> 100 µM (inactive)
O=C(CCNS(=O)(=O)c1ccc2[nH]c(=O)oc2c1)Nc1ccccc1	> 100 µM (inactive)
CC(C(=O)NCCc1ccc(O)c(O)c1)N1C(=O)/C(=C\c2ccco2)SC1=S (stereo not given)	> 100 µM (inactive)
COc1cccc(CNC(=O)CCNS(=O)(=O)c2ccc3[nH]c(=O)oc3c2)c1	> 100 µM (inactive)
N#Cc1cccc(NC(=O)CSc2sc3c(O)cc(=O)[nH]c3c2C#N)c1	> 100 µM (inactive)
S=C(NCCC(c1ccccc1)c1ccccc1)Nc1ccc(Cl)cc1Cl	56 µM
CC(C)N1CCC(=NNC(=O)c2cc(O)c(O)c(O)c2)CC1	> 100 µM (inactive)
COC(=O)NNC(=O)c1cc(OC)c(OC)c(OC)c1	> 100 µM (inactive)
COC(=O)c1ccc(C)c(NC(=O)CSc2sc3c(O)cc(=O)[nH]c3c2C#N)c1	> 100 µM (inactive)
COc1ccc(N2CCN(C(=O)CN3C(=O)/C(=C\c4ccco4)SC3=S)CC2)cc1	> 100 µM (inactive)
N#Cc1c(SCC(=O)Nc2nccs2)sc2c(O)cc(=O)[nH]c12	> 100 µM (inactive)
Cc1ccc(Cl)cc1NC(=O)CSc1sc2c(O)cc(=O)[nH]c2c1C#N	> 100 µM (inactive)

Further lines, results first:

EC50	SMILES
> 100 µM (inactive)	N#Cc1c(SCC(=O)Nc2ccccc2C(F)(F)F)sc2c(O)cc(=O)[nH]c12
> 100 µM (inactive)	CC(C(=O)Nc1cccc(C(=O)O)c1)N1C(=O)/C(=C\c2ccco2)SC1=S (stereo not given)
31 µM	COc1cc(C(=O)NN=Cc2ccccn2)cc(OC)c1OC
> 100 µM (inactive)	CCOc1cccc(NC(=O)CSc2sc3c(O)cc(=O)[nH]c3c2C#N)c1
> 100 µM (inactive)	N#Cc1cccc(NC(=O)CCNS(=O)(=O)c2ccc3[nH]c(=O)oc3c2)c1
> 100 µM (inactive)	O=C(N/N=C/c1ccco1)c1cc(O)c(O)c(O)c1
> 100 µM (inactive)	O=C1/C(=C/c2ccco2)SC(=S)N1C1CCS(=O)(=O)C1 (stereo not given)
> 100 µM (inactive)	CCN(C(=O)CN1C(=O)/C(=C\c2ccco2)SC1=S)C1CCS(=O)(=O)C1 (stereo not given)
> 100 µM (inactive)	C/C(=N\NC(=O)c1cc(O)c(O)c(O)c1)c1ccncc1
> 100 µM (inactive)	O=C(CCNS(=O)(=O)c1ccc2[nH]c(=O)oc2c1)Nc1cccc(-c2ccno2)c1
> 100 µM (inactive)	N#Cc1c(SCC(=O)Nc2ccc(Cl)cc2Cl)sc2c(O)cc(=O)[nH]c12
> 100 µM (inactive)	Cc1ccc(/C=N/NC(=O)c2cc(O)c(O)c(O)c2)cc1
> 100 µM (inactive)	CCOC(=O)N1CCN(S(=O)(=O)c2ccc3[nH]c(=O)oc3c2)CC1
> 100 µM (inactive)	CN1CCC(=NNC(=O)c2cc(O)c(O)c(O)c2)CC1
> 100 µM (inactive)	O=C(C1CCN(S(=O)(=O)c2ccc3[nH]c(=O)oc3c2)CC1)N1CC=C(c2ccccc2)CC1
> 100 µM (inactive)	COc1ccccc1CNC(=O)CCNS(=O)(=O)c1ccc2[nH]c(=O)oc2c1
